The test system of data set [1] is plasma. Kind of data set: Plasma coagulation time, Prothrombin Time (PT). It counts as biochemical. The following applies: plasma treated 3 minutes. As for the experimental part: (§1) In order to separate plasma, blood was collected with 3.2% sodium citrate as an anticoagulant. Whole blood was centrifuged at 2000 g for 20 minutes to obtain plasma. After treating the plasma with the test substances for 3 minutes, plasma coagulation time was measured. For plasma coagulation time, Activated Partial Thromboplastin Time (aPTT) and Prothrombin Time (PT) were measured using BBL® Fibrometer (Becton Dickinson, Cockeysville, Md.). For measurement of aPTT, the plasma was treated with aPTT reagents in fibrometer cup and reacted at 37° C. for 3 min. After the reaction, CaCl2 was added and blood coagulation time was measured immediately. For the measurement of PT, PT reagent was added to warmed plasma, and blood coagulation time was measured immediately. DTI, known to prolong plasma coagulation time, was used as a control.

Data set [2] relates to plasma. Kind of data set: Plasma coagulation time, Activated Partial Thromboplastin Time (aPTT). It counts as biochemical. Conditions: plasma treated 3 minutes. As for the experimental part: as §1
Data set [3] has as its system human liver cells (HepG2). The data set is described as follows: Cytotoxicity in human liver cells HepG2 (WST-1). It counts as cell-based. The following applies: HepG2, 250 μM, 18 hours. The method, then: 5-3. Evaluation of Cytotoxicity of Candidate Substances Using Human Liver Cells
Experiments were conducted to evaluate cytotoxicity in human liver cells (HepG2). HepG2 cells, which are human liver carcinoma cell lines, were cultured in DMEM (Dulbecco's minimum essential medium) supplemented with 10% FBS (fetal bovine serum) and 1% Penicillin/Streptomycin at 37° C. and 5% CO2. The cells were cultured in a 48 well plate at 4×10^4 cells/well for 24 hours and then used in the experiments. The HepG2 cells were treated with the candidate substances (250 μM) for 18 hours, and then the medium was removed and WST-1 was added, followed by shading for 3 hours for reaction. After 3 hours, the supernatant was taken and absorbance was measured at 450 nm. Cell viability was calculated by comparing the absorbance measured after adding WST-1 to HepG2 cells not treated with the candidate substances. Acetaminophen (40 mM) was used as a control.

Data set [4] relates to ADP-induced platelet aggregation, Human PRP. Kind of data set: ADP-induced platelet aggregation in human PRP (lumi-aggregometer). It counts as cell-based. Conditions: ADP 15-20 μM. As for the experimental part: (§2) To investigate whether the candidate substance has inhibition selectivity for shear-stress-induced platelet aggregation, which is by a physical stimulus, […] experiment was conducted by activating platelets with physiological agonists—i.e., thrombin, collagen and ADP—to study the inhibitory effect of the candidate substance.
(§3) Human PRP (598.8 μl) was treated with 1.2 μl of the candidate substance per concentration (25, 100, 250 μM) and reacted at 37° C. for 3 minutes using a thermomixer. Then, PRP (495 μl) was put in the aggregometer cuvette and preincubated for 1 minute, followed by treatment with platelet aggregation-inducing reagent, thrombin (0.6-0.8 U/ml), collagen (2-5 μg/ml), or ADP (adenosine diphosphate, 15-20 μM) at the minimum concentration causing maximum aggregation. The degree of aggregation of the platelets was measured by a turbidity change using a lumi-aggregometer (Chrono-Log Co., USA). The turbidity of the PRP was considered as 0%, and the turbidity of the PPP was considered as 100%. During the measurement, the reaction mixture was continuously stirred at 1,000 rpm with a silicone-coated magnetic stir bar.

For data set [5], the system named is collagen-induced platelet aggregation, Human PRP. The data set is described as follows: Collagen-induced platelet aggregation in human PRP (lumi-aggregometer). The following applies: collagen 2-5 μg/ml. It counts as cell-based. As for the experimental part: as §2, §3
In data set [6] the test system is human vascular endothelial cells (EA.hy926). The data set is described as follows: Cytotoxicity in EA.hy926 cell line (MTT assay). It counts as cell-based. The following applies: 24 hours. As for the experimental part: 5-1. Evaluation of Cytotoxicity of Candidate Substances Using EA.hy926 Cell Line
Experiments were conducted to determine the cytotoxicity of candidate substances in human vascular endothelial cells (EA.hy926). EA.hy926 was passaged in DMEM (Dulbecco's […]) supplemented with 10% fetal bovine serum (FBS) at 5% CO2/37° C. The cells were cultured in a 96 well plate at 1×10^4 cells/well for 48 hours, washed twice with DMEM and then cultured for 24 hours. Candidate substances were prepared at final concentrations of 25 and 100 μM, applied to the wells at 200 μl per well and cultured for 24 hours. MTT assay was used to measure the absorbance at 570 nm after colorization in violet.
(Tetrazolium assays rely on reduction of a dye to a coloured formazan, in cell work by metabolically active cells.)

The subject of data set [7] is Sprague-Dawley rats. The data set is described as follows: Bleeding side effect (tail bleeding time) after single oral administration. It counts as in vivo. The following applies: rat, tail cut 1 hour after administration. The method, then: Male Sprague-Dawley rats (250 to 300 g) were fasted overnight and then were orally administered with the candidate substances at each concentration. After 1 hour, the rats were anesthetized by intraperitoneal injection of urethane (1.25 g/kg). The 3 mm portion of the tail tip of the rats was cut and carefully wiped every 30 seconds. Bleeding time was measured in […] until no more blood was drawn, and when the bleeding lasted longer than 30 minutes, the bleeding time was recorded as 30 minutes.

For the compound `O=C(c1ccc(O)c(O)c1)N1CCc2sccc2C1` [Example 1, (6,7-Dihydrothieno[3,2-c]pyridin-5(4H)-yl)(3,4-dihydroxyphenyl)methanone], the “plasma coagulation time - PT, Time” value came to 10.8 ± 0.5 s in data set [1] (25 μM), 10.7 ± 0.8 s in data set [1] (100 μM) and 11.0 ± 0.1 s in data set [1] (250 μM). For the same compound, the entries for the “plasma coagulation time - aPTT, Time” value in data set [2] (25 μM), in data set [2] (100 μM) and in data set [2] (250 μM) were 23.8 ± 1.9 s, 24.8 ± 2.0 s and 26.7 ± 0.8 s, respectively. Moreover, in data set [3], the “Cell vaibility (%)” value is given as 91.7 ± 2.0%. For the same compound, the “Degree of platelet aggregation (%, Mean ± SEM)” value (“Degree … (%, Mean ± SEM)” below) was determined as 77.5 ± 3.5% in data set [4] (compound 25 μM); 69.0 ± 6.0% in data set [4] (compound 100 μM); 78.0 ± 7.0% in data set [4] (compound 250 μM); 84.3 ± 3.5% in data set [5] (25 μM); 80.7 ± 10.2% in data set [5] (100 μM); 84.3 ± 3.8% in data set [5] (250 μM). For the same compound, the “Cell viability (%)” value in data set [6] (EA.hy926, 25 μM) came out at 92.2 ± 2.8%; in data set [6] (EA.hy926, 100 μM), 94.2 ± 1.9%. The “Bleeding time” value was 6.0 ± 0.9 min in data set [7] (25 μM (so in the source)) and 6.5 ± 0.9 min in data set [7] (100 μM (so in the source)).

`COc1cc(C(=O)N2CCc3sccc3C2)ccc1O` [Example 12, (6,7-Dihydrothieno[3,2-c]pyridin-5(4H)-yl)(4-hydroxy-3-methoxyphenyl)methanone]: the figures for the “plasma coagulation time - PT, Time” value in data set [1] (25 μM), in data set [1] (100 μM) and in data set [1] (250 μM) were 10.9 ± 0.1 s, 11.0 ± 0.5 s and 10.5 ± 0.3 s, respectively. The “plasma coagulation time - aPTT, Time” value in data set [2] (25 μM) is 24.3 ± 0.1 s; in data set [2] (100 μM) it was 26.7 ± 1.0 s; in data set [2] (250 μM) it was 27.2 ± 2.0 s. Further, the “Cell vaibility (%)” value in data set [3] is 89.0 ± 2.3%. For the same compound, the “Degree … (%, Mean ± SEM)” value in data set [4] (compound 25 μM) turned out to be 76.0 ± 3.0%; in data set [4] (compound 100 μM) it was 67.5 ± 2.5%; in data set [4] (compound 250 μM), 77.0 ± 12.0%; in data set [5] (25 μM), 83.0 ± 4.0%; in data set [5] (100 μM), 80.0 ± 2.0%; in data set [5] (250 μM), 87.5 ± 3.5%. In addition, the “Cell viability (%)” value in data set [6] (EA.hy926, 25 μM) is on record as 95.1 ± 1.9%; in data set [6] (EA.hy926, 100 μM), 97.2 ± 2.8%. For the same compound, the “Bleeding time” value in data set [7] (25 μM (so in the source)) is 6.3 ± 0.6 min; in data set [7] (100 μM (so in the source)), 6.5 ± 0.3 min.

Take `COc1ccc(NC(=O)c2ccc(O)c(OC)c2)c([N+](=O)[O-])c1` [Example 15, 4-Hydroxy-3-methoxy-N-(4-methoxy-2-nitrophenyl)benzamide]: the “plasma coagulation time - PT, Time” value in data set [1] (25 μM) came out at 10.7 ± 0.0 s; in data set [1] (100 μM), 10.6 ± 0.2 s; in data set [1] (250 μM), 10.9 ± 0.1 s. For the same compound, the entries for the “plasma coagulation time - aPTT, Time” value in data set [2] (25 μM), in data set [2] (100 μM) and in data set [2] (250 μM) were 26.3 ± 2.3 s, 26.6 ± 1.0 s and 29.3 ± 0.5 s, respectively. In addition, the “Cell vaibility (%)” value in data set [3] was determined as 89.7 ± 2.3%. For the same compound, the “Degree … (%, Mean ± SEM)” value is 70.5 ± 2.5% in data set [4] (compound 25 μM); 68.5 ± 3.5% in data set [4] (compound 100 μM); 67.0 ± 4.0% in data set [4] (compound 250 μM); 86.0 ± 0.0% in data set [5] (25 μM); 84.5 ± 4.5% in data set [5] (100 μM); 83.5 ± 3.5% in data set [5] (250 μM). The “Cell viability (%)” value worked out at 100.8 ± 2.5% in data set [6] (EA.hy926, 25 μM) and 94.9 ± 3.3% in data set [6] (EA.hy926, 100 μM). Moreover, the “Bleeding time” value in data set [7] (25 μM (so in the source)) is 7.3 ± 0.7 min; in data set [7] (100 μM (so in the source)), 6.2 ± 0.6 min.

In the case of `O=C(c1cc(O)ccc1O)N1CCc2sccc2C1` [Example 20, (6,7-Dihydrothieno[3,2-c]pyridin-5(4H)-yl)(2,5-dihydroxyphenyl)methanone], the “plasma coagulation time - PT, Time” value in data set [1] (25 μM) is 10.8 ± 0.4 s; in data set [1] (100 μM) it was 10.2 ± 0.4 s; in data set [1] (250 μM) it was 11.2 ± 0.4 s. The “plasma coagulation time - aPTT, Time” value in data set [2] (25 μM) came to 24.9 ± 1.0 s; in data set [2] (100 μM), 25.3 ± 0.6 s; in data set [2] (250 μM) it was 25.8 ± 0.9 s. In data set [3], the “Cell vaibility (%)” value is recorded as 87.7 ± 2.6%. Also, the “Degree … (%, Mean ± SEM)” value amounted to 73.0 ± 2.0% in data set [4] (compound 25 μM); 69.0 ± 1.0% in data set [4] (compound 100 μM); 66.5 ± 2.5% in data set [4] (compound 250 μM); 82.3 ± 5.8% in data set [5] (25 μM); 81.3 ± 3.5% in data set [5] (100 μM); 87.7 ± 2.0% in data set [5] (250 μM). The “Cell viability (%)” value in data set [6] (EA.hy926, 25 μM) is recorded as 99.7 ± 3.2%; in data set [6] (EA.hy926, 100 μM), 97.7 ± 2.2%. The “Bleeding time” value in data set [7] (25 μM (so in the source)) worked out at 6.7 ± 0.6 min; in data set [7] (100 μM (so in the source)), 7.7 ± 0.4 min.

As for `O=C(c1cc(O)ccc1O)N1CCC(c2noc3ccc(F)cc23)CC1` [Example 23, (2,5-Dihydroxyphenyl)(4-(5-fluorobenzo[d]isoxazol-3-yl)piperidin-1-yl)methanone], the “plasma coagulation time - PT, Time” value in data set [1] (25 μM) was 10.3 ± 0.1 s; in data set [1] (100 μM), 10.7 ± 0.2 s; in data set [1] (250 μM) it was 10.8 ± 0.3 s. Further, the “plasma coagulation time - aPTT, Time” value in data set [2] (25 μM) turned out to be 26.2 ± 0.2 s; in data set [2] (100 μM), 29.5 ± 1.2 s; in data set [2] (250 μM), 26.1 ± 0.2 s. Moreover, the “Cell vaibility (%)” value in data set [3] was 82.7 ± 5.5%. In addition, the “Degree … (%, Mean ± SEM)” value in data set [4] (compound 25 μM) is 73.5 ± 1.5%; in data set [4] (compound 100 μM), 66.0 ± 1.0%; in data set [4] (compound 250 μM) it was 65.0 ± 0.0%; in data set [5] (25 μM) it was 82.0 ± 5.0%; in data set [5] (100 μM) it was 84.5 ± 4.5%; in data set [5] (250 μM) it was 83.5 ± 2.5%. The “Cell viability (%)” value is 104.3 ± 1.8% in data set [6] (EA.hy926, 25 μM) and 99.9 ± 1.9% in data set [6] (EA.hy926, 100 μM).

Values taken from patent US10730886B2, “Compound having effect of inhibiting platelet aggregation and salt thereof, and composition for preventing or treating thrombotic diseases, containing same” (SHIN POONG PHARMACEUTICAL CO., LTD., priority 2015, dated 2020).
